The values below come from patent US6573078B1, “Compounds which inhibit HIV replication” (priority 1992, dated 2003).

Common to all, as to assay type: cell-based
In one series the test system is CEM cells. Nature of the series: Cytotoxic or cytostatic effects on CEM cells grown in presence of peptide. Particulars: 50 mg/ml (highest concentration tested), three days, fresh peptide added each day.
Series [1] has as its system HIV-1LAI. Kind of series: Peptide inhibition of infection by cell-free virus (neutralization assay; AA5 cells, RT activity readout). The procedure:
Cell cultures were maintained in 96-well microtiter plates for 8 days by addition of fresh medium (but no further addition of peptides) every other day. On the eighth day post-infection, supernatant was tested for reverse transcriptase activity as evidence of successful infection.
The micro RT assay was adapted from Goff et al. (J. Virol. 38, 239 (1981)) and Willey et al. (J. Virol. 62, 139 (1988)). Supernatants from virus/cell cultures are made 1% in Triton-X100. A […] sample of supernatant was added to 50 ml of RT cocktail in a 96 well U bottom microtiter plate and the samples incubated at […] for 90 min. The cocktail contained 75 mM KCl, 2 mM dithiothreitol, 5 mm Mgcl2l 5 mg/ml poly A (Pharmacia cat. No. 27-4110-01), 0.25 units/ml oligo dT (Pharmacia cat. No. 27-7858-01), 0.05% NP40, 50 mM Tris-HC1, pH 7.8, 0.5 mM non-radioactive dTTP, and 10 mCi/ml ^32p-dTTP (Amersham cat. No. PB.10167). After the incubation period, 40 ml of reaction mixture was applied to a Schleicher and Schuell NA45 membrane (or DE81 paper) saturated in 2×SSC buffer (0.3M NaCl and […]) held in a Schleicher and Schuell Minifold over one sheet of GB003 filter paper. Each well of the minifold was washed four times with […] 2×SSC. The membrane was removed from the minifold and washed 2 more times in a pyrex dish with an excess of 2×SSC. Finally the membrane was drained on absorbent paper, placed on Whatman #3 paper, covered with saran wrap, and exposed to film overnight.
The HIV1LAI virus was obtained from R. Gallo (see M. Popovic et al., Science 224, 497 (1984)) and propagated in CEM cells cultured in RPMI 1640 containing 10-% FCS. Supernatant from the infected CEM cells was passed through a […] and the infectious titer estimated in a microinfectivity assay using the AA5 cell line to support virus replication. For this purpose 25 ml of serially diluted virus was added to 75 ml AA5 cells at 2×10^5/ml in a 96 well microtiter plate. Each virus dilution was tested in triplicate. Cells were cultured for eight days by addition of fresh medium every other day. On day 8 post infection supernatant samples were tested for virus replication as evidenced by RT activity released to the supernatant in accordance with the procedure described above. The TCID50 was calculated according to the Reed and Muench formula in accordance with known techniques. See L. Reed et al., Amer. J. Hygiene 27, 493 (1938) . The titer of the HIV-1LAI stock used for these studies, as measured on the AA5 cell line, was approximately 1×10^7TCID50/ml. The two primary isolates were obtained from PBMCs of two infected donors, one from Brazil (HIV-1Br3) and the other Trinidad (HIV-1Q72775) by co-cultivation with PHA-blasted normal donor PBMCs in RPMI 1640 containing IL2. The infectious titers of the primary virus stocks were estimated by titration onto normal human PHA blasted PBMCs in a 96 well microtiter plate, again using RT activity released to the supernatant as evidence for successful infection. The infectious titer of both of these isolates was estimated to be approximately 1×10^3 TCID100/ml.
The peptides were next tested for blockade of infection by cell-free virus. The results shown in FIG. 3 are representative of several experiments in which the DP-107, 125, and (CS3) peptides were compared for potency in the blockade of HIVLAI, infection of AA5 cells. Each level of peptide was incubated in triplicate with about 500 TCID50 of virus and cells. After 7 days of culture, cell-free supernatant was tested for the presence of RT activity as a measure of successful infection.

For series [2], the system named is two primary HIV-1 isolates (HIV-1Br3, HIV-1Q72775). Nature of the series: Peptide inhibition of PBMC infection by primary isolates (RT activity readout). Particulars: FIG. 5. The procedure: (§1) About 25 TCID100 of two primary isolates and HIV-1LAI were added to […] human PBMCs (about 1.5×10^6/ml) containing the indicated final concentrations of test peptide or 5T4. Each treatment condition was tested in duplicate and the cells were cultured in RPMI1640 containing 10% FCS 5% IL2. Four days post infection an equal number of fresh PBMCs were added to each well. This step allows for further expansion of virus and increases the […] in the final RT assay. Supernatant was harvested 8 days after infection and tested for the presence of reverse transcriptase activity.
(§2) The micro RT assay was adapted from Goff et al. (J. Virol. 38, 239 (1981)) and Willey et al. (J. Virol. 62, 139 (1988)). Supernatants from virus/cell cultures are made 1% in Triton-X100. A […] sample of supernatant was added to 50 ml of RT cocktail in a 96 well U bottom microtiter plate and the samples incubated at 370° C. for 90 min. […]
(§3) The HIV1LAI virus was obtained from R. Gallo (see M. Popovic et al., Science 224, 497 (1984)) and propagated in CEM cells cultured in RPMI 1640 containing 10-% FCS. […] The TCID50 was calculated according to the Reed and Muench formula in accordance with known techniques. […] The titer of the HIV-1LAI stock used for these studies, as measured on the AA5 cell line, was approximately 1×10^7TCID50/ml. […]

The test system of another series is HIV-1LAI virus. Kind of series: Peptide blockade of HIV-1 induced cell-cell fusion (syncytia formation; Molt4 cells co-cultivated with chronically infected CEM cells). Particulars: for No. Syncytia/well: Table 3, ctrl cells only = 85. As for the experimental part: The initial screen for antiviral activity of the peptides shown in FIG. 1 was for blockade of syncytium formation induced by overnight co-cultivation of uninfected Molt4 cells with chronically infected (HIV-1IIIB) CEM cells.
Approximately 7×10^4 Molt cells were incubated with 1×10^4 CEM cells chronically infected with the HIV-1LAI virus in 96 well plates (one-half area cluster plates;Costar. Cambridge, Mass.) in a final volume of […] culture media in accordance with known techniques (T. Matthews et al., Proc. Natl. Acad. Sci. U.S.A. 84, 5424 (1987)). Peptide inhibitors were added in a volume of […] and the cell mixtures were incubated for 24 hr at 37° C. At that time point, multinucleated giant cells were estimated by microscopic examination at a 40× magnification which allowed visualization of the entire well in a single field.

The test system of series [3] is HIV-1LAI. Nature of the series: Peptide inhibition of PBMC infection by prototypic isolate (RT activity readout). Particulars: FIG. 5. The procedure: as §1, §2, §3

For the substance “Ac-NNLLRAIEAQQHLLQLTVWGIKQLQARILAVERYLKDQ-NH2 [DP-107]”, the “Viability and growth rate of CEM cells” value with CEM cells is “same viability and growth rate as control cultures”.

For the substance “CGNNLLRAIEAQQHLLQLTVWGIKQLQARILAVERYLKDQ (CGGNNLLRAIEAQQHLLQLTVWGIKQLQARILAVERYLKDQ) [DP-125]”, the “Neutraliz: quantity of compound required for 90% reduction in infectivity” value in the series on HIV-1LAI [1] was 2 µg/mL. For the same substance, the “Dose required for inhibitory effect compared with DP-107 (in words)” value with HIV-1LAI [1] (FIG. 3) is listed as “lower”. Further, the “Blockade of HIVLAI infection of AA5 cells (in words)” value in the series on HIV-1LAI [1] (about 500 TCID50 of virus, RT activity in supernatant, FIG. 3) is listed as “inhibited the de-novo infection process”. In addition, in series [2], the “Inhibition of PBMC infection by primary isolates (in words)” value is given as “inhibit”. Also, the “Syncytia Number” value was 35 with HIV-1LAI virus (EXP. 2, peptide concentration 1.25 micrograms/ml, 0 peptide = 93); 3 in the series on HIV-1LAI virus (EXP. 2, peptide concentration 2.5 micrograms/ml, 0 peptide = 93); 0 in the series on HIV-1LAI virus (EXP. 2, peptide concentration 5 micrograms/ml, 0 peptide = 93); 0 in the series with HIV-1LAI virus (EXP. 2, peptide concentration 10 micrograms/ml, 0 peptide = 93); 0 in the series with HIV-1LAI virus (EXP. 2, peptide concentration 20 micrograms/ml, 0 peptide = 93); 0 in the series with HIV-1LAI virus (EXP. 2, peptide concentration 40 micrograms/ml, 0 peptide = 93). The “Syncytia Number” value in the series on HIV-1LAI virus (EXP. 3, peptide concentration 1.25 micrograms/ml, 0 peptide = 76) came to 0; in the series on HIV-1LAI virus (EXP. 3, peptide concentration 2.5 micrograms/ml, 0 peptide = 76), 0; with HIV-1LAI virus (EXP. 3, peptide concentration 5 micrograms/ml, 0 peptide = 76) it was 0; with HIV-1LAI virus (EXP. 3, peptide concentration 10 micrograms/ml, 0 peptide = 76), 0; with HIV-1LAI virus (EXP. 3, peptide concentration 20 micrograms/ml, 0 peptide = 76), 0; in the series with HIV-1LAI virus (EXP. 3, peptide concentration 40 micrograms/ml, 0 peptide = 76) it was 0. Besides, the “No. Syncytia/well” value with HIV-1LAI virus (peptide concentration 1.25 ug/ml on IIIB), with HIV-1LAI virus (peptide concentration 2.5 ug/ml on IIIB), with HIV-1LAI virus (peptide concentration 5 ug/ml on IIIB), in the series with HIV-1LAI virus (peptide concentration 10 ug/ml on IIIB), in the series on HIV-1LAI virus (peptide concentration 20 ug/ml on IIIB) and with HIV-1LAI virus (peptide concentration 40 ug/ml on IIIB) was 0 each time. The “Fusion: quantity of compound required for 90% reduction in number of syncytia” value with HIV-1LAI virus (control = 90 syncytia) is below 1 µg/mL. Besides, in the series with HIV-1LAI virus (syncytial blocking assays, Table 1 experiments 2 and 3), the “Concentration required for inhibition relative to DP107” value is reported as “one-half to one-fourth”. Moreover, the “Inhibition of PBMC infection by prototypic isolate HIVLAI (in words)” value in the series with HIV-1LAI [3] is reported as “inhibit”.
